Each structure is given as a SMILES string. Bounds are passed on as bounds.

Histone deacetylase 1, sequence (Q13547 whole entry): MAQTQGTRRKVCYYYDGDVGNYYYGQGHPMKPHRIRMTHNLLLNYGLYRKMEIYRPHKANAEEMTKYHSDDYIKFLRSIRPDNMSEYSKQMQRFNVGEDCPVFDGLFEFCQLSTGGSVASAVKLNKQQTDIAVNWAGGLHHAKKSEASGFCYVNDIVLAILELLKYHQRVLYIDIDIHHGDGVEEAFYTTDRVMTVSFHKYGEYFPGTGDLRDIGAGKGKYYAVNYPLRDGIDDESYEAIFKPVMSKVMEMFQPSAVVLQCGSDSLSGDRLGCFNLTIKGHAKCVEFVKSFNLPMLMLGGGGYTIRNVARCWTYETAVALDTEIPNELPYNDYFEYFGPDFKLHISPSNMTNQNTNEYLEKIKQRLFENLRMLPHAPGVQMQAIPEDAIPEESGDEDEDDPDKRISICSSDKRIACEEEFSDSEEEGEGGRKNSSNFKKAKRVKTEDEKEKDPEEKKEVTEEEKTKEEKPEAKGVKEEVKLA

The first data set has as its target Histone deacetylase 1 (Homo sapiens, UniProt Q13547). Put plainly: Inhibition of human recombinant HDAC1 expressed in baculovirus/sf9 cells using RHKKAc as substrate.
Conditions: not given
The term IC50 denotes the point on the concentration scale where inhibition reaches its midpoint. In the case of `CCc1nc2cc(/C=C/C(=O)NO)c(F)cc2c(=O)n1CCc1ccccc1`, the IC50 was found to be 3 µM.

`Cc1nc2cccc(/C=C/C(=O)NO)c2c(=O)n1-c1ccccc1`: the IC50 came out at 18.6 µM.

For `Cc1nc2ccc(/C=C/C(=O)NO)cc2c(=O)n1-c1ccccc1`, the IC50 came out at 2.09 µM.

As for `CCc1nc2cc(Cl)c(/C=C/C(=O)NO)cc2c(=O)n1CCc1ccccc1`, the IC50 was above 10 µM.

The target of the next data set is T1, Histone deacetylase 8 (Homo sapiens, UniProt Q9BY41).
T1 sequence (Q9BY41 whole entry): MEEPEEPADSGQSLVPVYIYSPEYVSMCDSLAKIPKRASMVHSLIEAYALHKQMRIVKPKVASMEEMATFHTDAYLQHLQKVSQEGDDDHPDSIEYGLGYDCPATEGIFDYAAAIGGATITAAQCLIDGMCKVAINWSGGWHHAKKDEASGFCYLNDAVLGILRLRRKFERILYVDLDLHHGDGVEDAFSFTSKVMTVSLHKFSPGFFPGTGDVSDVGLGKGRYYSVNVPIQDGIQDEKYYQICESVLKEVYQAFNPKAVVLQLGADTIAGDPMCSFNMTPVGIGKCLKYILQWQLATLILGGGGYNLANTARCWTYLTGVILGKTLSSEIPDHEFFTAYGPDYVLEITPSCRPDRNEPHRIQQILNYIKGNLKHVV
Put plainly: Inhibition of human recombinant HDAC8 expressed in baculovirus/sf9 cells using RHKAcKAc as substrate.
Conditions: not given
As for `CCc1nc2cc(/C=C/C(=O)NO)c(F)cc2c(=O)n1CCc1ccccc1`, the IC50 is 1.4 µM.

Consider `Cc1nc2cccc(/C=C/C(=O)NO)c2c(=O)n1-c1ccccc1`, for which the half-maximal inhibitory concentration (IC50) came to 1.06 µM.

Take `Cc1nc2ccc(/C=C/C(=O)NO)cc2c(=O)n1-c1ccccc1`: the IC50 stood at 0.609 µM.

`CCc1nc2cc(Cl)c(/C=C/C(=O)NO)cc2c(=O)n1CCc1ccccc1`: the IC50 was found to be 1.88 µM.

Another data set deals with Vero. Put plainly: Cytotoxicity against african green monkey Vero cells at 25 uM. The data set is classed as cell-based. The conditions noted are these: chlorocebus sabaeus.
For `CCc1nc2cc(/C=C/C(=O)NO)c(F)cc2c(=O)n1CCc1ccccc1`, the Activity entry is on record as “Non-toxic”.

Turning to `Cc1nc2cccc(/C=C/C(=O)NO)c2c(=O)n1-c1ccccc1`, the Activity result is “Non-toxic”.

In the case of `Cc1nc2ccc(/C=C/C(=O)NO)cc2c(=O)n1-c1ccccc1`, the Activity result was “Non-toxic”.

Consider `CCc1nc2cc(Cl)c(/C=C/C(=O)NO)cc2c(=O)n1CCc1ccccc1`, for which the Activity entry was “Non-toxic”.

Another data set deals with T2, Amyloid-beta precursor protein (Homo sapiens, UniProt P05067). Put plainly: Inhibition of amyloid beta aggregation (unknown origin) after 4 hrs by thioflavin S assay in presence of Zn2+.
T2 sequence (P05067 whole entry): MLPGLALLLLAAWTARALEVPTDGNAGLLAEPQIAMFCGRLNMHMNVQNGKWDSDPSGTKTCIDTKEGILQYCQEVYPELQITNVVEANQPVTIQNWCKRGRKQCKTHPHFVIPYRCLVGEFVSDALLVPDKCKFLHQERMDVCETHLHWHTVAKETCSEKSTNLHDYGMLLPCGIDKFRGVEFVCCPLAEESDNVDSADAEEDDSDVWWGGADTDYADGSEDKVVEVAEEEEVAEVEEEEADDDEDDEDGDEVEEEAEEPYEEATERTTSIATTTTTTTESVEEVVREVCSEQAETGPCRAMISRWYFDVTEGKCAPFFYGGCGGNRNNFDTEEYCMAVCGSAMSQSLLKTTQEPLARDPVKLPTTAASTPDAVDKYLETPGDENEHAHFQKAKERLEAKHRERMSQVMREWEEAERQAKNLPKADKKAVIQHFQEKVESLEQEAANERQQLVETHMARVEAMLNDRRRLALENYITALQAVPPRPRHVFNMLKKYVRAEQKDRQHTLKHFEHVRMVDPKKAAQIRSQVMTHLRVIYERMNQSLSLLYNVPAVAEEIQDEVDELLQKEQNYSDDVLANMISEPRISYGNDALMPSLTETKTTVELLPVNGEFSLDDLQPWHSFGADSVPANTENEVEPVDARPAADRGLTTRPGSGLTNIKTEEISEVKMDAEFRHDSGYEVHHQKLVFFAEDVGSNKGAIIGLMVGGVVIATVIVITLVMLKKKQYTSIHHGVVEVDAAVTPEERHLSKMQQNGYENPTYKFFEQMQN
Conditions: not given
Take `Cc1nc2cccc(/C=C/C(=O)NO)c2c(=O)n1-c1ccccc1`: the IC50 is above 50 µM.

For `Cc1nc2ccc(/C=C/C(=O)NO)cc2c(=O)n1-c1ccccc1`, the IC50 was above 50 µM.

In the next data set the target is Histone deacetylase 2 (Homo sapiens, UniProt Q92769). Put plainly: Inhibition of human recombinant HDAC2 expressed in baculovirus/sf9 cells using RHKKAc as substrate.
Histone deacetylase 2, sequence (Q92769 whole entry): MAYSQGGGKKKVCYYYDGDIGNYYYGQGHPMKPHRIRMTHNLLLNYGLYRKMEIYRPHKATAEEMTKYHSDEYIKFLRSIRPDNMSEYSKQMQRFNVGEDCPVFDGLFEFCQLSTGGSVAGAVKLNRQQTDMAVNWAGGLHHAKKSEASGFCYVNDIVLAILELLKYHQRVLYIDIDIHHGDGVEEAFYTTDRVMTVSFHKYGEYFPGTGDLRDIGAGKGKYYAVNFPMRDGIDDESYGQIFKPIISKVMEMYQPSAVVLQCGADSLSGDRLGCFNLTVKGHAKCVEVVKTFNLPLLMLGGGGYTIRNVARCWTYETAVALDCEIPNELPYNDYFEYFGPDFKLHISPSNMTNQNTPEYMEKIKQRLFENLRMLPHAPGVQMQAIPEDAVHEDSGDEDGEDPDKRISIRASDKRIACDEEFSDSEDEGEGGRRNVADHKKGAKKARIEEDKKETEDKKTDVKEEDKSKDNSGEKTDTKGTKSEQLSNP
Conditions: not given
On to `CCc1nc2cc(/C=C/C(=O)NO)c(F)cc2c(=O)n1CCc1ccccc1`, for which the IC50 is above 10 µM.

Regarding `Cc1nc2cccc(/C=C/C(=O)NO)c2c(=O)n1-c1ccccc1`, the IC50 is above 10 µM.

For `Cc1nc2ccc(/C=C/C(=O)NO)cc2c(=O)n1-c1ccccc1`, the IC50 came to 7.48 µM.

Turning to `CCc1nc2cc(Cl)c(/C=C/C(=O)NO)cc2c(=O)n1CCc1ccccc1`, the IC50 is above 12 µM.

For another data set, the species on record is Homo sapiens. Put plainly: Selectivity index, ratio of IC50 for human recombinant HDAC1 to IC50 for human recombinant HDAC6.
Conditions: not given
For `CCc1nc2cc(/C=C/C(=O)NO)c(F)cc2c(=O)n1CCc1ccccc1`, the Ratio IC50 amounted to 214.

For the molecule `Cc1nc2cccc(/C=C/C(=O)NO)c2c(=O)n1-c1ccccc1`, the Ratio IC50 came out at 10.

As for `Cc1nc2ccc(/C=C/C(=O)NO)cc2c(=O)n1-c1ccccc1`, the Ratio IC50 was 65.

As to `CCc1nc2cc(Cl)c(/C=C/C(=O)NO)cc2c(=O)n1CCc1ccccc1`, the Ratio IC50 is above 13.

The species named for the next data set is Homo sapiens. In words: Selectivity index, ratio of IC50 for human recombinant HDAC8 to IC50 for human recombinant HDAC6.
Conditions: not given
`CCc1nc2cc(/C=C/C(=O)NO)c(F)cc2c(=O)n1CCc1ccccc1`: the Ratio IC50 was found to be 100.

Regarding `Cc1nc2cccc(/C=C/C(=O)NO)c2c(=O)n1-c1ccccc1`, the Ratio IC50 is below 1.

In the case of `Cc1nc2ccc(/C=C/C(=O)NO)cc2c(=O)n1-c1ccccc1`, the Ratio IC50 was 19.

For the molecule `CCc1nc2cc(Cl)c(/C=C/C(=O)NO)cc2c(=O)n1CCc1ccccc1`, the Ratio IC50 was 3.

The next data set has as its target T3, Protein deacetylase HDAC6 (Homo sapiens, UniProt Q9UBN7).
T3 sequence (Q9UBN7 whole entry): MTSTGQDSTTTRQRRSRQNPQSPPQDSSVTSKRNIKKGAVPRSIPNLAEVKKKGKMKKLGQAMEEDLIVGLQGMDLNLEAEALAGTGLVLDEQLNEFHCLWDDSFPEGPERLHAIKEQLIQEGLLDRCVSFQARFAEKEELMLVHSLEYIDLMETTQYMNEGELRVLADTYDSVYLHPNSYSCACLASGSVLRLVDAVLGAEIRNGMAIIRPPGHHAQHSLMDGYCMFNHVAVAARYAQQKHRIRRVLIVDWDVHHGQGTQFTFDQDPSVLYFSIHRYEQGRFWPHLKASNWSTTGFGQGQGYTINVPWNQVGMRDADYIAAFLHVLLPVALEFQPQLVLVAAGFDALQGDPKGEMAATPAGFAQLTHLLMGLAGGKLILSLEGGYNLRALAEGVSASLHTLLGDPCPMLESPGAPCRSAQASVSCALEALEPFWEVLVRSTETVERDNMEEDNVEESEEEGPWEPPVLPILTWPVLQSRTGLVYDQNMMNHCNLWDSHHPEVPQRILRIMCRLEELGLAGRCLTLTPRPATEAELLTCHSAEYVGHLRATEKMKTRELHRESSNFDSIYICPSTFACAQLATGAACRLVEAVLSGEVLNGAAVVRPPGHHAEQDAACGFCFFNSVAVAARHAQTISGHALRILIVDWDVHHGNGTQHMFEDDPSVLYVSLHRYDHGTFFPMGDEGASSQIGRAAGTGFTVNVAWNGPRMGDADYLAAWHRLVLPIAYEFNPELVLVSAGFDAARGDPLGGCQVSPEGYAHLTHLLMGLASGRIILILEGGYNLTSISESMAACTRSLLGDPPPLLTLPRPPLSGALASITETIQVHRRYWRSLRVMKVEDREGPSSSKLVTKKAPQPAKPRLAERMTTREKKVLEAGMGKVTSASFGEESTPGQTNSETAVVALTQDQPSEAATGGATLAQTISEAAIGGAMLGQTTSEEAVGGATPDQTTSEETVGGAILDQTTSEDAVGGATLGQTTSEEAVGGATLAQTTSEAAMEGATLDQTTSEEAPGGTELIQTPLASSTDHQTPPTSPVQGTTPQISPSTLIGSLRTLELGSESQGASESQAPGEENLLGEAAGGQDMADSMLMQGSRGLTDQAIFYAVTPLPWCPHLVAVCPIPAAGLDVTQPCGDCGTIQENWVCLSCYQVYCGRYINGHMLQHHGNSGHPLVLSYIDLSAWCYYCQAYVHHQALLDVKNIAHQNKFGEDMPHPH
Put plainly: Inhibition of human recombinant HDAC6 expressed in baculovirus/sf9 cells using RHKKAc as substrate.
Conditions: not given
On to `CCc1nc2cc(/C=C/C(=O)NO)c(F)cc2c(=O)n1CCc1ccccc1`, for which the IC50 is 0.014 µM.

Regarding `Cc1nc2cccc(/C=C/C(=O)NO)c2c(=O)n1-c1ccccc1`, the IC50 was 1.92 µM.

As to `Cc1nc2ccc(/C=C/C(=O)NO)cc2c(=O)n1-c1ccccc1`, the IC50 is 0.032 µM.

With `CCc1nc2cc(Cl)c(/C=C/C(=O)NO)cc2c(=O)n1CCc1ccccc1`, the IC50 came out at 0.747 µM.

Another data set deals with T2, Amyloid-beta precursor protein. In words: Inhibition of amyloid beta aggregation (unknown origin) after 4 hrs by thioflavin S assay in absence of Zn2+.
Conditions: not given
Take `Cc1nc2cccc(/C=C/C(=O)NO)c2c(=O)n1-c1ccccc1`: the IC50 is above 50 µM.

The molecule `Cc1nc2ccc(/C=C/C(=O)NO)cc2c(=O)n1-c1ccccc1` returned an IC50 above 50 µM.

System in the next data set: not listed separately
In words: Cytotoxicity against human SH-SY5Y cells at 25 uM. In kind it is cell-based.
Conditions: not given
In the case of `CCc1nc2cc(/C=C/C(=O)NO)c(F)cc2c(=O)n1CCc1ccccc1`, the Activity entry was “Non-toxic”.

With `Cc1nc2cccc(/C=C/C(=O)NO)c2c(=O)n1-c1ccccc1`, the Activity result is “Non-toxic”.

Consider `Cc1nc2ccc(/C=C/C(=O)NO)cc2c(=O)n1-c1ccccc1`, for which the Activity entry was “Non-toxic”.

With `CCc1nc2cc(Cl)c(/C=C/C(=O)NO)cc2c(=O)n1CCc1ccccc1`, the Activity result is “Non-toxic”.

A further data set concerns the target T4, Polyamine deacetylase HDAC10 (Homo sapiens, UniProt Q969S8).
T4 sequence (Q969S8 whole entry): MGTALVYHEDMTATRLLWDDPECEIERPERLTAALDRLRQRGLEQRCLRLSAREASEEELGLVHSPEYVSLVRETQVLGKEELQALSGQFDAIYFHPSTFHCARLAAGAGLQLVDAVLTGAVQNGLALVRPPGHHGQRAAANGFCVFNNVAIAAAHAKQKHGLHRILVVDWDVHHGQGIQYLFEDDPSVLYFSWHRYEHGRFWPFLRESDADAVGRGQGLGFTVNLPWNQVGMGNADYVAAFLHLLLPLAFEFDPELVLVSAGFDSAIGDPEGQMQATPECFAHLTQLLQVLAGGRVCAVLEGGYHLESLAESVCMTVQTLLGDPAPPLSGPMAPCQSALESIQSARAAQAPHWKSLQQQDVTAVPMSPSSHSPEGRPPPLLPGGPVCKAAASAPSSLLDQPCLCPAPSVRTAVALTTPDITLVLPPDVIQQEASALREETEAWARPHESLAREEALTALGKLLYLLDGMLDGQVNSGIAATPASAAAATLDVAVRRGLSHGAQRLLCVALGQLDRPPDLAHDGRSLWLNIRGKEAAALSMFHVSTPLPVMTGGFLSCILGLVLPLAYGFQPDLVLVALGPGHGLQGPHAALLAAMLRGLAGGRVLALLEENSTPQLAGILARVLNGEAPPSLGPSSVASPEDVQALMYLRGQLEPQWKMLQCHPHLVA
In words: Inhibition of human recombinant HDAC10 expressed in baculovirus/sf9 cells using RHKKAc as substrate.
Conditions: not given
In the case of `Cc1nc2cccc(/C=C/C(=O)NO)c2c(=O)n1-c1ccccc1`, the IC50 is above 10 µM.

In the case of `Cc1nc2ccc(/C=C/C(=O)NO)cc2c(=O)n1-c1ccccc1`, the IC50 was found to be 5.14 µM.

In the next data set the test system is PC-12. In words: Cytotoxicity against rat PC12 cells at 25 uM. The data set is classed as cell-based. The conditions noted are these: pc-12, 25 µM.
For `CCc1nc2cc(/C=C/C(=O)NO)c(F)cc2c(=O)n1CCc1ccccc1`, the Activity entry was “Non-toxic”.

Consider `Cc1nc2cccc(/C=C/C(=O)NO)c2c(=O)n1-c1ccccc1`, for which the Activity result is “Non-toxic”.

With `Cc1nc2ccc(/C=C/C(=O)NO)cc2c(=O)n1-c1ccccc1`, the Activity entry was “Non-toxic”.

For `CCc1nc2cc(Cl)c(/C=C/C(=O)NO)cc2c(=O)n1CCc1ccccc1`, the Activity result is given as “Non-toxic”.

The target of the next data set is T5, Histone deacetylase 11 (Homo sapiens, UniProt Q96DB2).
T5 sequence (Q96DB2 whole entry): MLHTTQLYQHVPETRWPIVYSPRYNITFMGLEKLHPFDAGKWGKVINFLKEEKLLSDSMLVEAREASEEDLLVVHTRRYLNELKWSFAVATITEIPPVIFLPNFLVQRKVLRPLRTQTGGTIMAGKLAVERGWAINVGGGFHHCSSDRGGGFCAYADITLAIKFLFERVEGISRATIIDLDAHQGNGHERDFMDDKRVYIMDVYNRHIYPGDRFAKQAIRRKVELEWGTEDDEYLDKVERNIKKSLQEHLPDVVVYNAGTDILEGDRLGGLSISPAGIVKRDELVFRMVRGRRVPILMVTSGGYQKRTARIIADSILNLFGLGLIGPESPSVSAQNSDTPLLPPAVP
Put plainly: Inhibition of human recombinant HDAC11 expressed in baculovirus/sf9 cells using RHKKAc as substrate.
Conditions: not given
On to `CCc1nc2cc(/C=C/C(=O)NO)c(F)cc2c(=O)n1CCc1ccccc1`, for which the IC50 was determined as 3.74 µM.

For `Cc1nc2cccc(/C=C/C(=O)NO)c2c(=O)n1-c1ccccc1`, the IC50 was above 10 µM.

In the case of `Cc1nc2ccc(/C=C/C(=O)NO)cc2c(=O)n1-c1ccccc1`, the IC50 amounted to 5.22 µM.

As to `CCc1nc2cc(Cl)c(/C=C/C(=O)NO)cc2c(=O)n1CCc1ccccc1`, the IC50 is above 30 µM.

Source of the values: ChEMBL document CHEMBL2424579, “Quinazolin-4-one derivatives as selective histone deacetylase-6 inhibitors for the treatment of Alzheimer's disease” (J Med Chem, 2013).
